This is an account of results in US20120107428A1, “REPELLENTS FOR PESTIFEROUS SOCIAL WASPS” (Sterling International Inc., priority 2010, published 2012).

Common to all, as to assay type: in vivo
The test system of experiment [1] is Yellowjackets (mainly Vespula pensylvanica (ca. 90%), plus V. vulgaris, V. germanica, and Dolichovespula maculata). The experiment is described as follows: Field trapping, Rescue W•H•Y traps baited with attractant heptyl butyrate: captures of yellowjackets. The note with it: Table 5, Experiment 5; treatment alone (essential oil mix alone, or attractant HB alone); 13 days in September; N 18. As to the method:
(§1) Eleven field trapping experiments were carried out from late August to mid-October 2009 in residential and woody areas around Spokane, Wash., USA, mostly using the trap known by the designation Rescue® W•H•Y (except on one occasion that Rescue® Reusable Yellowjacket Traps were used for a natural food attractant; see below for details). The commercial W•H•Y trap has a top chamber and a bottom chamber and is described in U.S. Patent Application Publication No. 2009/0151228. The top chamber is baited with two attractants—one of which is a solid contained in a vial (2-methyl-1-butanol), and the other is a liquid mixed with water (acetic acid). The bottom chamber is baited with a liquid attractant (heptyl butyrate) poured onto a cotton pad. Separation of the two types of attractants (otherwise antagonistic to each other when released from the same chamber) in two chambers creates two focal attraction sources from one trap for different species of wasps, hornets, and yellowjackets. In order to test potential repellency of essential oils or EAD-active synthetic candidate compounds on different types of attractants, W•H•Y traps were baited with either a top attractant or a bottom attractant depending on the experiments. […]

Experiment [2] deals with Paper wasps (mainly Polistes dominulus, plus a few of P. aurifer). The experiment is described as follows: Field trapping, Rescue W•H•Y traps baited with attractant heptyl butyrate: captures of paper wasps. As to the method: as §1
Experiment [3] concerns yellowjackets (mainly Vespula pensylvanica). The experiment is described as follows: Field observation of landing and approaching of yellowjackets at heptyl butyrate attractant source (experiment 7). The note with it: Experiment 7, FIG. 1, attractant alone, 15 minutes observation replicates. As to the method: In addition, the repellency of the essential oil mixture (3EO-mix; at 0 cm and 50 cm above the heptyl butyrate attractant) on the landing behavior of yellowjackets was field observed (as experiment 7) on a September day for roughly 1.5 hours in Spokane, Wash. This observation test was conducted in the sun by setting up in a line east to west four portable light gray folding tables (45.7×66.0×67.3 cm) in a level area of grass near a vineyard. These tables were placed approximately 3 m apart. Chairs were set up approximately 4 m away from the tables for the scientists conducting the observations. On each table a black lab support stand was used with a movable metal bar in the horizontal direction clamped to the support stand for placing a repellent PE-bag dispenser (2 ml of 3EO-mix) or blank PE-bag at either 0 cm or 50 cm above the attractant, heptyl butyrate. A white towel was used to cover the black base of the support stand to provide a uniform color. A circle felt pad (3.5 cm diameter) loaded with 3 ml of heptyl butyrate as attractant or left blank for a negative control in a Petri dish (9 cm diameter) was placed on the base of the stand. […]
Trap catch data (number of wasps/trap/visit) and landing/approaching numbers were transformed by log (X+1) and the transformed means were analyzed by ANOVA, followed by the Duncan's multiple-range test (SPSS 16.0 for Windows) at α=0.05.

Turning to `CCCCCCCOC(=O)CCC` [HB, heptyl butyrate], the “Mean/trap/visit ± SE Yellowjackets” value in experiment [1] was found to be 39.7 ± 13.6 b wasps/trap/visit. Further, in experiment [2] (Experiment 5), the “attraction of paper wasps to heptyl butyrate” value was “not attracted”. Further, the “Mean/trap/visit ± SE Paper wasps” value in experiment [2] (Table 5, Experiment 5, treatment alone (essential oil mix alone, or attractant HB alone), 13 days in September, N 18) is reported as 1.3 ± 0.6 a wasps/trap/visit. Besides, the “average number of yellowjackets landing” value in experiment [3] was 5. Also, the “average number of yellowjackets approaching” value in experiment [3] (within 0.5 m) is listed as 12.
